# Earlier results, collected in patent publication US6455070B1, “Composition for treating symptoms of influenza” (East Park Research, Inc., priority 2001, dated 2002).
# Tested on: wide variety of viruses
# Conditions: greatest activity under alkaline conditions (pH 7.5)
smiles,measurement,value
COC(=O)C1=CO[C@@H](C)[C@@H](C=O)[C@@H]1CC(=O)[O-].COC(=O)C1=CO[C@@H](C)[C@@H](C=O)[C@@H]1CC(=O)[O-].[Ca+2] [calcium elenolate],in vitro antiviral activity,activity against a wide variety of viruses
